Key:
[1] = test system: rat; conditions: Combined chronic toxicity/carcinogenicity; fischer; Oral; Feed; dose end: 78 week; group: systemic; systemic / pathology microscopic / spleen / fibrosis
[2] = test system: mouse; conditions: Combined chronic toxicity/carcinogenicity, b6c3f1, Oral, Feed, dose end: 78 week, group: systemic
[3] = test system: rabbit; conditions: Prenatal developmental toxicity study, new zealand white, Oral, Gavage/Intubation, dose end: 19 GD, group: maternal
[4] = test system: mouse; conditions: Prenatal developmental toxicity study, cd1, Oral, Gavage/Intubation, dose end: 15 GD
[5] = test system: rat; conditions: Subchronic oral toxicity in rodents, wistar, Feed, dose end: 13 week
[6] = test system: dog; conditions: Chronic toxicity, beagle, Oral, Feed, dose end: 80 day, group: systemic
[7] = test system: rat; conditions: Subchronic oral toxicity in rodents, wistar, Feed, dose end: 13 week, group: systemic
[8] = test system: dog; conditions: Chronic toxicity, beagle, Oral, Feed, dose end: 52 week, group: systemic
[9] = test system: rat; conditions: Combined chronic toxicity/carcinogenicity, sprague dawley, Oral, Feed, dose end: 104 week
[10] = test system: mouse; conditions: Carcinogenicity, other, Oral, [Not Specified], dose end: 104 week, group: systemic
[11] = test system: rat; conditions: Prenatal developmental toxicity study, wistar, Oral, Gavage/Intubation, dose end: 15 GD
[12] = test system: rat; conditions: Combined chronic toxicity/carcinogenicity, wistar, Oral, Feed, dose end: 106 week, group: systemic
[13] = test system: dog; conditions: Subchronic oral toxicity in nonrodent, beagle, Feed, dose end: 90 day, group: systemic, systemic / hematology / methemoglobin / methemoglobin
[14] = test system: rabbit; conditions: Prenatal developmental toxicity study, chinchilla, Oral, Gavage/Intubation, dose end: 27 GD
[15] = test system: rat; conditions: Multigenerational reproductive toxicity study, other, Oral, Feed, dose end: 2 generation
[16] = test system: rat; conditions: Prenatal developmental toxicity study, wistar, Oral, Gavage/Intubation, dose end: 15 GD; remark: listed apart in the source
[17] = test system: rat; conditions: Combined chronic toxicity/carcinogenicity, other, Oral, Feed, dose end: 104 week, group: systemic
[18] = test system: rat; conditions: Multigenerational reproductive toxicity study, sprague dawley, Oral, Feed, dose end: 2 generation
[19] = test system: rat; conditions: Subchronic oral toxicity in rodents, sprague dawley, Feed, dose end: 90 day, group: systemic
[20] = test system: mouse; conditions: Carcinogenicity, cd1, Oral, Feed, dose end: 78 week, group: systemic
[21] = systemic / in life observation / body weight / body weight
[22] = systemic / in life observation / body weight / body weight + systemic / pathology microscopic / spleen / hemangiosarcoma
[23] = systemic / in life observation / mortality / mortality + reproductive / reproductive performance / premature delivery / premature delivery
[24] = group: developmental, systemic / in life observation / body weight / fetal weight
[25] = group: maternal, reproductive / reproductive performance / resorptions / resorptions + systemic / in life observation / body weight / body weight gain + …
[26] = group: cholinesterase, cholinesterase / cholinesterase / cholinesterase / brain cholinesterase (che) + cholinesterase / cholinesterase / cholinesterase / …
[27] = group: systemic, systemic / hematology / anemia / anemia - macrocytic + systemic / hematology / erythrocyte (rbc) count differential / erythrocyte (rbc) + …
[28] = systemic / hematology / methemoglobin / methemoglobin
[29] = systemic / hematology / methemoglobin / methemoglobin + systemic / urinalysis / appearance and color / appearance and color
[30] = systemic / clinical chemistry / thyroxine (t4) / thyroxine (t4), total + systemic / hematology / methemoglobin / methemoglobin + systemic / …
[31] = systemic / hematology / methemoglobin / methemoglobin + systemic / clinical chemistry / triiodothyronine (t3) / triiodothyronine (t3), total
[32] = group: cholinesterase, cholinesterase / cholinesterase / cholinesterase / brain cholinesterase (che)
[33] = group: cholinesterase, cholinesterase / cholinesterase / cholinesterase / erythrocyte cholinesterase (che) + cholinesterase / cholinesterase / cholinesterase / …
[34] = group: systemic, systemic / hematology / erythrocyte (rbc) count differential / erythrocyte (rbc) + systemic / hematology / hematocrit (hct) / hematocrit (…
[35] = systemic / hematology / anemia / anemia - heinz body + systemic / in life observation / body weight / body weight
[36] = group: developmental, developmental / developmental malformation / bone / absent + developmental / developmental malformation / bone / bipartite ossification + …
[37] = group: maternal, systemic / in life observation / body weight / body weight gain + systemic / in life observation / food consumption / food consumption
[38] = systemic / hematology / anemia / anemia - hemolytic + systemic / hematology / erythrocyte (rbc) count differential / erythrocyte (rbc) + …
[39] = systemic / pathology microscopic / thyroid gland / hyperplasia
[40] = group: developmental, systemic / in life observation / body weight / fetal weight + developmental / developmental malformation / bone / unossified
[41] = group: maternal, systemic / in life observation / body weight / body weight gain + systemic / in life observation / food consumption / food consumption + …
[42] = group: offspring, systemic / organ weight / kidney / relative to body weight + systemic / organ weight / liver / relative to body weight
[43] = group: parental, systemic / organ weight / spleen / absolute + systemic / organ weight / spleen / relative to body weight + systemic / hematology / anemia / …
[44] = group: parental, systemic / organ weight / spleen / absolute + systemic / organ weight / spleen / relative to body weight + systemic / in life observation / …
[45] = group: reproductive, reproductive / offspring survival early / litter size / litter size
[46] = group: developmental, developmental / developmental malformation / bone / incomplete ossification + developmental / developmental malformation / bone / unossified…
[47] = group: maternal, systemic / hematology / methemoglobin / methemoglobin
[48] = group: maternal, systemic / hematology / methemoglobin / methemoglobin + systemic / hematology / heinz body / heinz body + systemic / in life observation / …
[49] = systemic / pathology microscopic / liver / vacuolization
[50] = systemic / pathology microscopic / liver / vacuolization + systemic / pathology microscopic / liver / hyperplasia + systemic / pathology …
[51] = group: offspring, systemic / in life observation / body weight / offspring (pup) weight + systemic / in life observation / body weight / offspring (pup) …
[52] = group: parental, systemic / in life observation / body weight / body weight + systemic / in life observation / body weight / body weight gain + systemic / …
[53] = systemic / clinical chemistry / alanine aminotransferase (alt/sgpt) / alanine aminotransferase (alt/sgpt) + systemic / clinical chemistry / …
[54] = systemic / pathology microscopic / liver / hypertrophy + systemic / pathology microscopic / liver / necrosis
[55] = systemic / pathology microscopic / liver / hypertrophy + systemic / pathology microscopic / liver / necrosis + systemic / pathology …

## Nc1ccc(Cl)cc1 [4-Chloroaniline]
[1]
  LEL: 12.5 mg/kg/day
  LOAEL: 12.5 mg/kg/day
  NEL: < 12.5 mg/kg/day
  NOAEL: < 12.5 mg/kg/day
[2]; [21]
  LOAEL: 375 mg/kg/day
  NOAEL: < 375 mg/kg/day
[2]; [22]
  LEL: 375 mg/kg/day
  NEL: < 375 mg/kg/day

## [O]=[Cr](=[O])([OH])[OH] [Chromic(VI) acid]
[3]; systemic / in life observation / mortality / mortality
  LOAEL: 2 mg/kg/day
[3]; [23]
  LEL: 2 mg/kg/day
  NEL: 0.5 mg/kg/day
  NOAEL: 0.5 mg/kg/day
[4]; [24]
  LEL: 120 mg/kg/day
  LOAEL: > 120 mg/kg/day
  NEL: 60 mg/kg/day
  NOAEL: ≥ 120 mg/kg/day
[4]; [25]
  LEL: 120 mg/kg/day
  LOAEL: 120 mg/kg/day
  NEL: 60 mg/kg/day
  NOAEL: 60 mg/kg/day

## CCOC(=O)Nc1cccc(OC(=O)Nc2ccccc2)c1 [Desmedipham]
[5]; [26]
  LEL: 15 mg/kg/day
  LOAEL: 15 mg/kg/day
  NEL: < 15 mg/kg/day
  NOAEL: < 15 mg/kg/day
[5]; [27]
  LEL: 15 mg/kg/day
  LOAEL: 15 mg/kg/day
  NEL: < 15 mg/kg/day
  NOAEL: < 15 mg/kg/day
[6]; [28]
  LOAEL: 12.5 mg/kg/day
  NOAEL: < 12.5 mg/kg/day
[6]; [29]
  LEL: 12.5 mg/kg/day
  NEL: < 12.5 mg/kg/day
[7]; [30]
  LOAEL: 26 mg/kg/day
  NOAEL: 5.2 mg/kg/day
[7]; [28]
  LEL: 5.2 mg/kg/day
[7]; systemic / hematology / methemoglobin / methemoglobin + systemic / clinical chemistry / thyroxine (t4) / thyroxine (t4), total + systemic / …
  NEL: 2.6 mg/kg/day
[8]; [28]
  LOAEL: 9.6 mg/kg/day
  NOAEL: < 9.6 mg/kg/day
[8]; [31]
  LEL: 9.6 mg/kg/day
  NEL: < 9.6 mg/kg/day
[9]; [32]
  LOAEL: > 54 mg/kg/day
  NOAEL: ≥ 54 mg/kg/day
[9]; [33]
  LEL: 25 mg/kg/day
  NEL: 5.9 mg/kg/day
[9]; [34]
  LOAEL: 54 mg/kg/day
  NEL: 4.7 mg/kg/day
  NOAEL: 18 mg/kg/day
[9]; group: systemic, systemic / pathology microscopic / lung / focal cellular change + systemic / pathology microscopic / seminal vesicle / secretory fluid
  LEL: 18 mg/kg/day
[10]; systemic / hematology / anemia / anemia - heinz body
  LOAEL: 109 mg/kg/day
[10]; [35]
  LEL: 109 mg/kg/day
  NEL: 21.7 mg/kg/day
  NOAEL: 21.7 mg/kg/day
[11]; [36]
  LEL: 1000 mg/kg/day
  LOAEL: 1000 mg/kg/day
  NEL: 100 mg/kg/day
  NOAEL: 100 mg/kg/day
[11]; [37]
  LEL: 1000 mg/kg/day
  LOAEL: 1000 mg/kg/day
  NEL: 100 mg/kg/day
  NOAEL: 100 mg/kg/day
[12]; [38]
  LOAEL: 16.1 mg/kg/day
  NOAEL: 3.3 mg/kg/day
[12]; [39]
  LEL: 3.18 mg/kg/day
  NEL: < 3.18 mg/kg/day
[13]
  LEL: 4.97 mg/kg/day
  LOAEL: 4.97 mg/kg/day
  NEL: 0.17 mg/kg/day
  NOAEL: 0.17 mg/kg/day
[14]; [40]
  LEL: 450 mg/kg/day
  LOAEL: 450 mg/kg/day
  NEL: 150 mg/kg/day
  NOAEL: 150 mg/kg/day
[14]; group: maternal, systemic / in life observation / body weight / body weight gain
  LOAEL: 450 mg/kg/day
[14]; [41]
  LEL: 450 mg/kg/day
  NEL: 150 mg/kg/day
  NOAEL: 150 mg/kg/day
[15]; group: offspring, systemic / in life observation / body weight / offspring (pup) weight
  LOAEL: 110 mg/kg/day
[15]; group: offspring, systemic / in life observation / body weight / offspring (pup) weight + systemic / organ weight / heart / absolute + systemic / organ weight…
  NOAEL: 20 mg/kg/day
[15]; [42]
  LEL: 4 mg/kg/day
  NEL: < 4 mg/kg/day
[15]; [43]
  LEL: 20 mg/kg/day
  LOAEL: 20 mg/kg/day
[15]; [44]
  NEL: 4 mg/kg/day
  NOAEL: 4 mg/kg/day
[15]; [45]
  LEL: 110 mg/kg/day
  LOAEL: > 110 mg/kg/day
  NEL: 20 mg/kg/day
  NOAEL: ≥ 110 mg/kg/day
[16]; [46]
  LEL: 500 mg/kg/day
  LOAEL: 500 mg/kg/day
  NEL: 100 mg/kg/day
  NOAEL: 100 mg/kg/day
[16]; [47]
  LEL: 100 mg/kg/day
  LOAEL: 100 mg/kg/day
[16]; [48]
  NEL: 10 mg/kg/day
  NOAEL: 10 mg/kg/day

## CCOC(=O)COc1cc(-c2nn(C)c(OC(F)F)c2Cl)c(F)cc1Cl [Pyraflufen-ethyl]
[17]; [49]
  LEL: 86.7 mg/kg/day
  LOAEL: 86.7 mg/kg/day
[17]; [50]
  NEL: 17.2 mg/kg/day
  NOAEL: 17.2 mg/kg/day
[18]; [51]
  LEL: 721 mg/kg/day
  LOAEL: 721 mg/kg/day
  NEL: 70.8 mg/kg/day
  NOAEL: 70.8 mg/kg/day
[18]; [52]
  LEL: 721 mg/kg/day
  LOAEL: 721 mg/kg/day
  NEL: 70.8 mg/kg/day
  NOAEL: 70.8 mg/kg/day
[19]; [53]
  LOAEL: 1490 mg/kg/day
  NEL: 85.6 mg/kg/day
  NOAEL: 456 mg/kg/day
[19]; systemic / organ weight / brain / relative to body weight
  LEL: 456 mg/kg/day
[20]; [54]
  LEL: 98.3 mg/kg/day
  LOAEL: 98.3 mg/kg/day
[20]; [55]
  NEL: 19.6 mg/kg/day
  NOAEL: 19.6 mg/kg/day

Reference: EPA's ToxRefDB 2
